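96-well plates; 48 h exposure; 5 concentrations. Endpoints by linear interpolation between flanking doses. Not reached: highest tested concentration assigned. Abbreviation: GI50, concentration required for 50% inhibition of growth. At the TGI there is no net growth.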
Tests used:
Test in all cases: NCI tumour cell line growth inhibition, 48 h
OVCAR-3 ovarian = test system: OVCAR-3 ovarian
HCT-15 colon = test system: HCT-15 colon
IGROV1 ovarian = test system: IGROV1 ovarian
SF-295 CNS = test system: SF-295 CNS
SK-OV-3 ovarian = test system: SK-OV-3 ovarian
NCI-H226 lung = test system: NCI-H226 lung
SNB-75 CNS = test system: SNB-75 CNS
HOP-92 NSCLC = test system: HOP-92 NSCLC
RPMI-8226 leukemia = test system: RPMI-8226 leukemia
MDA-MB-435 = test system: MDA-MB-435
M14 melanoma = test system: M14 melanoma
PC-3 prostate = test system: PC-3 prostate
786-0 renal = test system: 786-0 renal
T-47D breast = test system: T-47D breast
NCI-H23 lung = test system: NCI-H23 lung
OVCAR-5 ovarian = test system: OVCAR-5 ovarian
NCI/ADR-RES ovarian = test system: NCI/ADR-RES ovarian
U251 CNS = test system: U251 CNS
OVCAR-8 ovarian = test system: OVCAR-8 ovarian
A549 NSCLC = test system: A549 NSCLC
MCF7 breast = test system: MCF7 breast
DU-145 prostate = test system: DU-145 prostate
HCT-116 colon = test system: HCT-116 colon
SR leukemia = test system: SR leukemia
EKVX NSCLC = test system: EKVX NSCLC
CAKI-1 renal = test system: CAKI-1 renal
HCC-2998 colon = test system: HCC-2998 colon
BT-549 breast = test system: BT-549 breast
LOX IMVI melanoma = test system: LOX IMVI melanoma
SF-268 CNS = test system: SF-268 CNS
SK-MEL-2 melanoma = test system: SK-MEL-2 melanoma
MALME-3M melanoma = test system: MALME-3M melanoma
COLO 205 colon = test system: COLO 205 colon
TK-10 renal = test system: TK-10 renal
HL-60(TB) leukemia = test system: HL-60(TB) leukemia
MOLT-4 leukemia = test system: MOLT-4 leukemia
MDA-MB-231 breast = test system: MDA-MB-231 breast
SW-620 colon = test system: SW-620 colon
NCI-H522 lung = test system: NCI-H522 lung
NCI-H460 lung = test system: NCI-H460 lung
SK-MEL-28 melanoma = test system: SK-MEL-28 melanoma
SK-MEL-5 melanoma = test system: SK-MEL-5 melanoma
CCRF-CEM leukemia = test system: CCRF-CEM leukemia
HOP-62 NSCLC = test system: HOP-62 NSCLC
K-562 leukemia = test system: K-562 leukemia
SNB-19 CNS = test system: SNB-19 CNS
OVCAR-4 ovarian = test system: OVCAR-4 ovarian
SF-539 CNS = test system: SF-539 CNS
ACHN renal = test system: ACHN renal
UO-31 renal = test system: UO-31 renal
KM12 colon = test system: KM12 colon
SN12C renal = test system: SN12C renal
HS 578T breast = test system: HS 578T breast
UACC-62 melanoma = test system: UACC-62 melanoma
UACC-257 melanoma = test system: UACC-257 melanoma
RXF 393 renal = test system: RXF 393 renal
A498 renal = test system: A498 renal
HT29 colon = test system: HT29 colon

## CN(C)c1cc[n+](/C(NS(=O)(=O)c2cc(C(=O)Nc3ccc(Cl)cc3)c(Cl)cc2[S-])=C(\C#N)C(=O)c2ccccc2)cc1
OVCAR-3 ovarian
  GI50: 26.6 µM
  TGI: 98.6 µM
HCT-15 colon
  GI50: 17.4 µM
  TGI: 65.1 µM
IGROV1 ovarian
  GI50: 84.7 µM
  TGI: > 100 µM
SF-295 CNS
  GI50: 27.1 µM
  TGI: 68.7 µM
SK-OV-3 ovarian
  GI50: 36.5 µM
  TGI: 99.3 µM
NCI-H226 lung
  GI50: 21.6 µM
  TGI: 49.3 µM
SNB-75 CNS
  GI50: 31.1 µM
  TGI: > 100 µM
HOP-92 NSCLC
  GI50: 13.9 µM
  TGI: 36.3 µM
RPMI-8226 leukemia
  GI50: 40.9 µM
  TGI: > 100 µM
MDA-MB-435
  GI50: 36.5 µM
  TGI: > 100 µM
M14 melanoma
  GI50: 35.6 µM
  TGI: > 100 µM
PC-3 prostate
  GI50: 24.9 µM
  TGI: 75.5 µM
786-0 renal
  GI50: > 100 µM
  TGI: > 100 µM
T-47D breast
  GI50: 9.64 µM
  TGI: 77.7 µM
NCI-H23 lung
  GI50: 41.2 µM
  TGI: > 100 µM
OVCAR-5 ovarian
  GI50: 22.7 µM
  TGI: 53 µM
NCI/ADR-RES ovarian
  GI50: > 100 µM
  TGI: > 100 µM
U251 CNS
  GI50: 61 µM
  TGI: > 100 µM
OVCAR-8 ovarian
  GI50: 39.1 µM
  TGI: > 100 µM
A549 NSCLC
  GI50: 41.5 µM
  TGI: > 100 µM
MCF7 breast
  GI50: 25.1 µM
  TGI: > 100 µM
DU-145 prostate
  GI50: 17.2 µM
  TGI: 82.6 µM
HCT-116 colon
  GI50: 14.9 µM
  TGI: 34.3 µM
SR leukemia
  GI50: > 100 µM
  TGI: > 100 µM
EKVX NSCLC
  GI50: 29.3 µM
  TGI: 95.9 µM
CAKI-1 renal
  GI50: 18.7 µM
  TGI: 43 µM
HCC-2998 colon
  GI50: 20.3 µM
  TGI: 57.2 µM
BT-549 breast
  GI50: 25.4 µM
  TGI: 82.8 µM
LOX IMVI melanoma
  GI50: 49.7 µM
  TGI: > 100 µM
SF-268 CNS
  GI50: 40.6 µM
  TGI: > 100 µM
SK-MEL-2 melanoma
  GI50: 85 µM
  TGI: > 100 µM
MALME-3M melanoma
  GI50: 31.7 µM
  TGI: > 100 µM
COLO 205 colon
  GI50: 30 µM
  TGI: > 100 µM
TK-10 renal
  GI50: 29.1 µM
  TGI: > 100 µM
HL-60(TB) leukemia
  GI50: > 100 µM
  TGI: > 100 µM
MOLT-4 leukemia
  GI50: 26.8 µM
  TGI: > 100 µM
MDA-MB-231 breast
  GI50: 16.7 µM
  TGI: 48.5 µM
SW-620 colon
  GI50: 32 µM
  TGI: > 100 µM
NCI-H522 lung
  GI50: 23.7 µM
  TGI: 58.5 µM
NCI-H460 lung
  GI50: 14.4 µM
  TGI: 49.4 µM
SK-MEL-28 melanoma
  GI50: 30.8 µM
  TGI: > 100 µM
SK-MEL-5 melanoma
  GI50: 21.3 µM
  TGI: 81.8 µM
CCRF-CEM leukemia
  GI50: 33.1 µM
  TGI: > 100 µM
HOP-62 NSCLC
  GI50: 69.5 µM
  TGI: > 100 µM
K-562 leukemia
  GI50: 89.4 µM
  TGI: > 100 µM
SNB-19 CNS
  GI50: 37.7 µM
  TGI: > 100 µM
OVCAR-4 ovarian
  GI50: 18 µM
  TGI: 38.8 µM
SF-539 CNS
  GI50: 11.9 µM
  TGI: 24.8 µM
ACHN renal
  GI50: 50 µM
  TGI: > 100 µM
UO-31 renal
  GI50: 23.8 µM
  TGI: 54.7 µM
KM12 colon
  GI50: 40.6 µM
  TGI: > 100 µM
SN12C renal
  GI50: 79.8 µM
  TGI: > 100 µM
HS 578T breast
  GI50: 26.1 µM
  TGI: 67 µM
UACC-62 melanoma
  GI50: 29.3 µM
  TGI: 98.6 µM
UACC-257 melanoma
  GI50: 90.2 µM
  TGI: > 100 µM
RXF 393 renal
  GI50: 55.4 µM
  TGI: > 100 µM

## COC(=O)CN(CC1O[C@@H]2OC(C)(C)O[C@@H]2C1N=[N+]=[N-])C(=O)OCc1ccccc1 (stereo partly specified)
OVCAR-3 ovarian
  TGI: > 100 µM
HCT-15 colon
  TGI: > 100 µM
IGROV1 ovarian
  TGI: > 100 µM
SF-295 CNS
  TGI: > 100 µM
SK-OV-3 ovarian
  TGI: > 100 µM
NCI-H226 lung
  TGI: > 100 µM
SNB-75 CNS
  TGI: > 100 µM
HOP-92 NSCLC
  TGI: > 100 µM
RPMI-8226 leukemia
  TGI: > 100 µM
MDA-MB-435
  TGI: > 100 µM
M14 melanoma
  TGI: > 100 µM
PC-3 prostate
  TGI: > 100 µM
786-0 renal
  TGI: > 100 µM
T-47D breast
  TGI: > 100 µM
A498 renal
  TGI: > 100 µM
OVCAR-5 ovarian
  TGI: > 100 µM
NCI/ADR-RES ovarian
  TGI: > 100 µM
U251 CNS
  TGI: > 100 µM
OVCAR-8 ovarian
  TGI: > 100 µM
A549 NSCLC
  TGI: > 100 µM
MCF7 breast
  TGI: > 100 µM
DU-145 prostate
  TGI: > 100 µM
HCT-116 colon
  TGI: > 100 µM
SR leukemia
  TGI: > 100 µM
EKVX NSCLC
  TGI: > 100 µM
CAKI-1 renal
  TGI: > 100 µM
HCC-2998 colon
  TGI: > 100 µM
BT-549 breast
  TGI: > 100 µM
LOX IMVI melanoma
  TGI: > 100 µM
SF-268 CNS
  TGI: > 100 µM
SK-MEL-2 melanoma
  TGI: > 100 µM
COLO 205 colon
  TGI: > 100 µM
TK-10 renal
  TGI: > 100 µM
HL-60(TB) leukemia
  TGI: > 100 µM
MOLT-4 leukemia
  TGI: > 100 µM
MDA-MB-231 breast
  TGI: > 100 µM
SW-620 colon
  TGI: > 100 µM
NCI-H522 lung
  TGI: > 100 µM
NCI-H460 lung
  TGI: > 100 µM
SK-MEL-28 melanoma
  TGI: > 100 µM
SK-MEL-5 melanoma
  TGI: > 100 µM
HOP-62 NSCLC
  TGI: > 100 µM
K-562 leukemia
  TGI: > 100 µM
SNB-19 CNS
  TGI: > 100 µM
OVCAR-4 ovarian
  TGI: > 100 µM
SF-539 CNS
  TGI: > 100 µM
HT29 colon
  TGI: > 100 µM
ACHN renal
  TGI: > 100 µM
UO-31 renal
  TGI: > 100 µM
KM12 colon
  TGI: > 100 µM
SN12C renal
  TGI: > 100 µM
HS 578T breast
  TGI: > 100 µM
UACC-62 melanoma
  TGI: > 100 µM
UACC-257 melanoma
  TGI: > 100 µM

From PubChem BioAssay (NCI)
